Source: PMC8233162, “Structural characterization of two solute-binding proteins for N,N′-diacetylchitobiose/N,N′,N′′-triacetylchitotoriose of the gram-positive bacterium, Paenibacillus sp. str. FPU-7” (Journal of Structural Biology: X, 2021)
Read-outs that look alike come from different tables or passages of the source.

What was measured:
Assay type in all cases: binding, Paenibacillus sp. FPU-7
[1] = target: T1, NagB2; assay: SPR (Biacore X100), crystal structure at […] Å, DSF
T1 construct: recombinant without signal peptide (Met1 to Ala20), C-terminal LEHHHHHH

[2] = target: T2, NagB1; assay: SPR (Biacore X100), crystal structure at […] Å, DSF
T2 construct: recombinant without Met1–Ser21 signal peptide and Cys22–Phe48 (starts at Thr49), C-terminal LEHHHHHH

[3] = target: T2, NagB1; assay: SPR (Biacore X100), DSF
[4] = target: T1, NagB2; assay: SPR (Biacore X100), crystal structure at […] Å, DSF; remark: listed apart in the source

CC(=O)N[C@H]1[C@H](O[C@H]2[C@H](O)[C@@H](NC(C)=O)C(O)O[C@@H]2CO)O[C@H](CO)[C@@H](O)[C@@H]1O (stereo partly shown) [(GlcNAc)2, N,N′-diacetylchitobiose]
Kd [1]: 190 nM
Kd [2]: 173 nM

CC(=O)N[C@H]1[C@H](O[C@H]2[C@H](O)[C@@H](NC(C)=O)C(O)O[C@@H]2CO)O[C@H](CO)[C@@H](O[C@@H]2O[C@H](CO)[C@@H](O)[C@H](O)[C@H]2NC(C)=O)[C@@H]1O (stereo partly shown) [(GlcNAc)3, N,N′,N′′-triacetylchitotoriose]
Kd [3]: 2970 nM
Kd [4]: 1120 nM
